Laboratory results: patent publication US8329904B2, “Azacyclic derivatives” (Hoffmann-La Roche Inc., priority 2009, dated 2012)

target: T1, human HSL (Homo sapiens, UniProt Q05469); assay: Human Hormone-Sensitive Lipase (HSL) Enzyme Inhibition Assay; assay type: biochemical; details: colorimetric assay, 2,3-dimercapto-1-propanol tributyrate (DMPT) substrate, 37° C. for 20 minutes, absorbance at 405 nm; read-out: HSL hum IC50
T1 construct: overlapping PCR to generate a full length human HSL ORF with a 3′-His6 tag; His6 (C); made in house; host or cells: High 5 insect cells (baculovirus, pFast-BAC)
T1 sequence (Q05469 1-1076): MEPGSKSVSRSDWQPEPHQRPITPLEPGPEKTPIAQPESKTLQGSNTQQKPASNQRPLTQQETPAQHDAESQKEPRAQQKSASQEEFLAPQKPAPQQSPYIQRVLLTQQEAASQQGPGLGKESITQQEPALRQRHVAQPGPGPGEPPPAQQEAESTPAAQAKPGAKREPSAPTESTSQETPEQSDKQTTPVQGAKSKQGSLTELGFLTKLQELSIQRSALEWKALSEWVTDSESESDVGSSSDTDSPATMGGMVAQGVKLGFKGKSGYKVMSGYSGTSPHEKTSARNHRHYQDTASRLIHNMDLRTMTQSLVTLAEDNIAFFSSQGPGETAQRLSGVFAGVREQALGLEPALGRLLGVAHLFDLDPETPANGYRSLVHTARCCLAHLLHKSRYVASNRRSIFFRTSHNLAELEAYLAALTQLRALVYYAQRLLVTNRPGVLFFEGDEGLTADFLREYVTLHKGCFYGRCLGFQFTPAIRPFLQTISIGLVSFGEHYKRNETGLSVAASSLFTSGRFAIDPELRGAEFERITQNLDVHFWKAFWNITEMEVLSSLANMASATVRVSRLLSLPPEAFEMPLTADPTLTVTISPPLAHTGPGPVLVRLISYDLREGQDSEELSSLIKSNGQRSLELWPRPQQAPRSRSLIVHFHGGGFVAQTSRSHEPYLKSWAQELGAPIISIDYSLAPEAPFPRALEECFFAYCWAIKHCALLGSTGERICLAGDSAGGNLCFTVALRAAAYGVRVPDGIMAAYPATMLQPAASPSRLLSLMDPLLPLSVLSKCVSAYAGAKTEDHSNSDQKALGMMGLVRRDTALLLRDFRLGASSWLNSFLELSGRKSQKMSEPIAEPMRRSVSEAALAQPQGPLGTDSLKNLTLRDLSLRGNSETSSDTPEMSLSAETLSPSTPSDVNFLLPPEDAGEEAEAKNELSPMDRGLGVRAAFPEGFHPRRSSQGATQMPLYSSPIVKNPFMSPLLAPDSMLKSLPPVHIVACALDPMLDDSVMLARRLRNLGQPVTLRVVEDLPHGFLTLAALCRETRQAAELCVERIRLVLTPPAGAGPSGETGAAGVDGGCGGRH
Procedure, shortened: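 Colorimetric thioester hydrolysis: compounds in DMSO series mixed with DMPT (1.5 mM) in MOPS pH 7.2 with BSA, then baculovirus-expressed His6-tagged full-length human HSL added, 37° C, 20 min. DTNB plus detergents added, 15 min room temperature, absorbance at 405 nm.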

Compound	IC50
O=C1N(c2ccc(OC(F)(F)F)cc2)CCC12CCN(S(=O)(=O)c1ccccc1C(F)(F)F)CC2 [Example 68, 2-(4-Trifluoromethoxy-phenyl)-8-(2-trifluoromethyl-benzenesulfonyl)-2,8-diaza-spiro[4.5]decan-1-one]	40 nM
CCc1ccc(N2CCC3(CCN(S(=O)(=O)c4ccc(C(F)(F)F)cc4Cl)CC3)C2=O)cc1 [Example 69, 8-(2-Chloro-4-trifluoromethyl-benzenesulfonyl)-2-(4-ethyl-phenyl)-2,8-diaza-spiro[4.5]decan-1-one]	310 nM
O=C1N(c2ccc(OC(F)(F)F)cc2)CCC12CCN(S(=O)(=O)c1ccc(C(F)(F)F)cc1Cl)CC2 [Example 70, 8-(2-Chloro-4-trifluoromethyl-benzenesulfonyl)-2-(4-trifluoromethoxy-phenyl)-2,8-diaza-spiro[4.5]decan-1-one]	140 nM
O=C1N(c2ccc(C3CC3)cc2)CCC12CCN(S(=O)(=O)c1ccccc1C(F)(F)F)CC2 [Example 71, 2-(4-Cyclopropyl-phenyl)-8-(2-trifluoromethyl-benzenesulfonyl)-2,8-diaza-spiro[4.5]decan-1-one]	80 nM
O=C1N(c2ccc(C3CC3)cc2)CCC12CCN(S(=O)(=O)c1ccc(F)cc1C(F)(F)F)CC2 [Example 72, 2-(4-Cyclopropyl-phenyl)-8-(4-fluoro-2-trifluoromethyl-benzenesulfonyl)-2,8-diaza-spiro[4.5]decan-1-one]	110 nM
O=C1N(c2ccc(CC(F)(F)F)cc2)CCC12CCN(S(=O)(=O)c1ccccc1C(F)(F)F)CC2 [Example 73, 2-[4-(2,2,2-Trifluoro-ethyl)-phenyl]-8-(2-trifluoromethyl-benzenesulfonyl)-2,8-diaza-spiro[4.5]decan-1-one]	80 nM
CCc1ccc(N2CCC3(CCN(S(=O)(=O)c4ccccc4I)CC3)C2=O)cc1 [Example 74, 2-(4-Ethyl-phenyl)-8-(2-iodo-benzenesulfonyl)-2,8-diaza-spiro[4.5]decan-1-one]	200 nM
CCc1ccc(N2CCC3(CCN(S(=O)(=O)c4ccc(F)cc4C(F)(F)F)CC3)C2=O)cc1 [Example 75, 2-(4-Ethyl-phenyl)-8-(4-fluoro-2-trifluoromethyl-benzenesulfonyl)-2,8-diaza-spiro[4.5]decan-1-one]	260 nM
O=C1N(c2ccc(OC(F)(F)F)cc2)CCC12CCN(S(=O)(=O)c1ccc(F)cc1C(F)(F)F)CC2 [Example 76, 8-(4-Fluoro-2-trifluoromethyl-benzenesulfonyl)-2-(4-trifluoromethoxy-phenyl)-2,8-diaza-spiro[4.5]decan-1-one]	190 nM
O=C1N(c2ccc(C3CC3)cc2)CCC12CCN(S(=O)(=O)c1ccc(C(F)(F)F)cc1Cl)CC2 [Example 77, 8-(2-Chloro-4-trifluoromethyl-benzenesulfonyl)-2-(4-cyclopropyl-phenyl)-2,8-diaza-spiro[4.5]decan-1-one]	180 nM
O=C1N(c2ccc(CC(F)(F)F)cc2)CCC12CCN(S(=O)(=O)c1ccccc1OC(F)(F)F)CC2 [Example 78, 2-[4-(2,2,2-Trifluoro-ethyl)-phenyl]-8-(2-trifluoromethoxy-benzenesulfonyl)-2,8-diaza-spiro[4.5]decan-1-one]	30 nM
O=C1N(c2ccc(OCC(F)(F)F)cc2)CCC12CCN(S(=O)(=O)c1ccccc1OC(F)(F)F)CC2 [Example 79, 2-[4-(2,2,2-Trifluoro-ethoxy)-phenyl]-8-(2-trifluoromethoxy-benzenesulfonyl)-2,8-diaza-spiro[4.5]decan-1-one]	40 nM
O=C1N(c2ccc(OS(=O)(=O)C3CC3)cc2)CCC12CCN(S(=O)(=O)c1ccccc1OC(F)(F)F)CC2 [Example 80, Cyclopropanesulfonic acid 4-[1-oxo-8-(2-trifluoromethoxy-benzenesulfonyl)-2,8-diaza-spiro[4.5]dec-2-yl]-phenyl ester]	50 nM
O=C1N(c2ccc(CC(F)(F)F)cc2)CCC12CCN(S(=O)(=O)c1ccc(F)cc1C(F)(F)F)CC2 [Example 81, 8-(4-Fluoro-2-trifluoromethyl-benzenesulfonyl)-2-[4-(2,2,2-trifluoro-ethyl)-phenyl]-2,8-diaza-spiro[4.5]decan-1-one]	90 nM
O=C1N(c2ccc(C3CC3)cc2)CCC12CCN(S(=O)(=O)c1ccccc1OC(F)(F)F)CC2 [Example 82, 2-(4-Cyclopropyl-phenyl)-8-(2-trifluoromethoxy-benzenesulfonyl)-2,8-diaza-spiro[4.5]decan-1-one]	110 nM
CS(=O)(=O)Oc1ccc(N2CCC3(CCN(S(=O)(=O)c4ccc(F)cc4C(F)(F)F)CC3)C2=O)cc1 [Example 83, Methanesulfonic acid 4-[8-(4-fluoro-2-trifluoromethyl-benzenesulfonyl)-1-oxo-2,8-diaza-spiro[4.5]dec-2-yl]-phenyl ester]	40 nM
CCCCOc1ccc(N2CCC3(CCN(S(=O)(=O)CC(C)C)CC3)C2=O)cc1 [Example 84, 2-(4-Butoxy-phenyl)-8-(2-methyl-propane-1-sulfonyl)-2,8-diaza-spiro[4.5]decan-1-one]	200 nM
CCC(C)Oc1ccc(N2CCC3(CCN(S(=O)(=O)CC(C)C)CC3)C2=O)cc1 (stereo not shown) [Example 85, 2-(4-sec-Butoxy-phenyl)-8-(2-methyl-propane-1-sulfonyl)-2,8-diaza-spiro[4.5]decan-1-one]	100 nM
CC(C)CS(=O)(=O)N1CCC2(CCN(c3ccc(OC(C)C(F)(F)F)cc3)C2=O)CC1 (stereo not shown) [Example 86, 8-(2-Methyl-propane-1-sulfonyl)-2-[4-(2,2,2-trifluoro-1-methyl-ethoxy)-phenyl]-2,8-diaza-spiro[4.5]decan-1-one]	80 nM
CC(C)Oc1ccc(N2CCC3(CCN(S(=O)(=O)c4ccccc4OC(F)(F)F)CC3)C2=O)cc1 [Example 87, 2-(4-Isopropoxy-phenyl)-8-(2-trifluoromethoxy-benzenesulfonyl)-2,8-diaza-spiro[4.5]decan-1-one]	20 nM
CCCCOc1ccc(N2CCC3(CCN(S(=O)(=O)c4ccccc4OC(F)(F)F)CC3)C2=O)cc1 [Example 88, 2-(4-Butoxy-phenyl)-8-(2-trifluoromethoxy-benzenesulfonyl)-2,8-diaza-spiro[4.5]decan-1-one]	50 nM
CC(Oc1ccc(N2CCC3(CCN(S(=O)(=O)c4ccccc4OC(F)(F)F)CC3)C2=O)cn1)C(F)(F)F (stereo not shown) [Example 89, 8-(2-Trifluoromethoxy-benzenesulfonyl)-2-[6-(2,2,2-trifluoro-1-methyl-ethoxy)-pyridin-3-yl]-2,8-diaza-spiro[4.5]decan-1-one]	30 nM
CCC(C)Oc1ccc(N2CCC3(CCN(S(=O)(=O)c4ccccc4OC(F)(F)F)CC3)C2=O)cc1 (stereo not shown) [Example 90, 2-(4-sec-Butoxy-phenyl)-8-(2-trifluoromethoxy-benzenesulfonyl)-2,8-diaza-spiro[4.5]decan-1-one]	20 nM
C=Cc1ccc(N2CCC3(CCN(S(=O)(=O)c4ccccc4Cl)CC3)C2=O)cc1 [Example 91, 8-(2-Chloro-benzenesulfonyl)-2-(4-vinyl-phenyl)-2,8-diaza-spiro[4.5]decan-1-one]	40 nM
CC(C)Oc1ccc(N2CCC3(CCN(S(=O)(=O)CC4CCC4)CC3)C2=O)cc1 [Example 92, 8-Cyclobutylmethanesulfonyl-2-(4-isopropoxy-phenyl)-2,8-diaza-spiro[4.5]decan-1-one]	170 nM
O=C1N(c2ccc(OC(F)(F)F)cc2)CCC12CCN(S(=O)(=O)CC1CCC1)CC2 [Example 93, 8-Cyclobutylmethanesulfonyl-2-(4-trifluoromethoxy-phenyl)-2,8-diaza-spiro[4.5]decan-1-one]	90 nM
CC(C)CS(=O)(=O)N1CCC2(CCN(c3ccc(OCC4CC4)cc3)C2=O)CC1 [Example 94, 2-(4-Cyclopropylmethoxy-phenyl)-8-(2-methyl-propane-1-sulfonyl)-2,8-diaza-spiro[4.5]decan-1-one]	270 nM
CC(C)Oc1ccc(N2CCC3(CCN(S(=O)(=O)C4CC4)CC3)C2=O)cc1 [Example 95, 8-Cyclopropanesulfonyl-2-(4-isopropoxy-phenyl)-2,8-diaza-spiro[4.5]decan-1-one]	360 nM
